Measurements: patent publication US12168763B2, “Microorganisms and methods for reducing bacterial contamination” (Melio Peptide Systems Inc., priority 2020, dated 2024)
“Also recorded” adds a separate entry of the source. Where no end group is shown, it is not given here.

What was measured:
[1] = tested on: P. pentosaceus NCCB 31016; experiment: Soft-agar overlay assay of S. cerevisiae M2 strain expressing pediocin PA-1 variants; conditions: S. cerevisiae M2 transformants; compared to wild-type pediocin PA-1
[2] = tested on: L. delbrueckii CCUG 34222T; experiment: as above; conditions: S. cerevisiae M2 transformants; compared to wild-type pediocin PA-1
L. fermentum NCCB 46038 [3] = experiment: Soft-agar overlay screen of peptide-expressing yeast (BY4742)
E. faecium NCCB 86023 = experiment: as above
L. lactis NCCB 26066 = experiment: as above
[4] = tested on: P. pentosaceus NCCB 31016; experiment: as above; conditions: soft-agar overlay, peptide-expressing yeast
W. confusa CCUG30943 = experiment: as above
L. reuteri CCUG 32624 = experiment: as above
[5] = tested on: L. delbrueckii CCUG 34222; experiment: as above
W. confusa CCUG30113 = experiment: as above
L. fermentum NCCB 46038 [6] = experiment: Soft-agar overlay assay of S. cerevisiae BY4742 secreting persulcatusin variants from pHVXU plasmids; conditions: for Growth inhibition zones of L. fermentum: FIG. 7, BY4742 with pHVXU plasmids, 30° C., 1 day; for Increase in Activity: random mutagenesis clones of persulcatusin, increase of growth inhibition zones; for Change in activity: alanine scanning of persulcatusin, relative to wild-type, soft-agar overlay
Lactobacillus casei = experiment: Soft-agar overlay screen of peptide-expressing yeast, other lactic acid bacteria; assay type: cell-based; conditions: sometimes weak
Lactobacillus amylovorus = experiment: as above; assay type: cell-based; conditions: sometimes weak

Row | Substance | Growth inhibition zone (halo) of P. pentosaceus [1] | Growth inhibition zone (halo) of L. delbrueckii [2] | Inhibition, L. fermentum NCCB 46038 (L. fermentum NCCB 46038 [3]) | Inhibition, E. faecium NCCB 86023 (E. faecium NCCB 86023) | Inhibition, L. lactis NCCB 26066 (L. lactis NCCB 26066) | Inhibition, P. pentosaceus NCCB 31016 [4] | Inhibition, W. confusa CCUG30943 (W. confusa CCUG30943) | Inhibition, L. reuteri CCUG 32624 (L. reuteri CCUG 32624) | Inhibition, L. delbrueckii CCUG 34222 [5] | Inhibition, W. confusa CCUG30113 (W. confusa CCUG30113) | also measured
1 | Engineered pediocin PA-1 with [pediocin PA-1 K1A/S15A, Engineered pediocin PA-1 with [K1A/S15A]] | Growth inhibition zones of P. pentosaceus and L. delbrueckii were observable | Growth inhibition zones of P. pentosaceus and L. delbrueckii were observable |  |  |  |  |  |  |  |  | 
2 | Hiracin JM79 |  |  | − | + | − | − | − | − | − | − | 
3 | Engineered pediocin PA-1 with [pediocin PA-1 K1A/G19A, Engineered pediocin PA-1 with [K1A/G19A]] | Growth inhibition zones of P. pentosaceus and L. delbrueckii were observable | Growth inhibition zones of P. pentosaceus and L. delbrueckii were observable |  |  |  |  |  |  |  |  | 
4 | Wild-type persulcatusin [Wild-type persulcatusin [Ixodes persulcatus]] |  |  | + | − | − | − | − | − | − | + | Growth inhibition zones of L. fermentum (L. fermentum NCCB 46038 [6]): Growth inhibition zones of L. fermentum are observable
5 | Ubericin A |  |  | − | − | + | + | − | − | + | − | 
6 | Engineered pediocin PA-1 with [S13A] (KYYGNGVTCGKHACSVDWGKATTCIINNGAMAWATGGHQGNHKC; ends and bridges not checked; cysteine pairing not given here) [pediocin PA-1 S13A] | Growth inhibition zones of P. pentosaceus were observable | Growth inhibition zones of L. delbrueckii were observable |  |  |  |  |  |  |  |  | 
7 | Engineered persulcatusin with [Mutation S7-192-1, Engineered persulcatusin with [F6L/G9D/R13S/H14Q]] |  |  | + | − | − | − | + | + | − | + | Antibacterial activity against Lactobacillus casei (Lactobacillus casei): showed some antibacterial activity; Growth inhibition zones of L. fermentum (L. fermentum NCCB 46038 [6]): significantly bigger zones; Increase in Activity (L. fermentum NCCB 46038 [6]): ++++; Antibacterial activity against Lactobacillus amylovorus (Lactobacillus amylovorus): showed some antibacterial activity
8 | Engineered pediocin PA-1 with [pediocin PA-1 K1A/T22A, Engineered pediocin PA-1 with [K1A/T22A]] | largest halo |  |  |  |  |  |  |  |  |  | 
9 | Engineered pediocin PA-1 with [S15A] (KYYGNGVTCGKHSCAVDWGKATTCIINNGAMAWATGGHQGNHKC; ends and bridges not checked; cysteine pairing not given here) [pediocin PA-1 S15A] | Growth inhibition zones of P. pentosaceus were observable | Growth inhibition zones of L. delbrueckii were observable |  |  |  |  |  |  |  |  | 
10 | Engineered pediocin PA-1 with [pediocin PA-1 K1A/K20A, Engineered pediocin PA-1 with [K1A/K20A]] | Growth inhibition zones of P. pentosaceus and L. delbrueckii were observable | Growth inhibition zones of P. pentosaceus and L. delbrueckii were observable |  |  |  |  |  |  |  |  | 
11 | Engineered pediocin PA-1 with [K20A] (KYYGNGVTCGKHSCSVDWGAATTCIINNGAMAWATGGHQGNHKC; ends and bridges not checked; cysteine pairing not given here) [pediocin PA-1 K20A] | Growth inhibition zones of P. pentosaceus were observable | Growth inhibition zones of L. delbrueckii were observable |  |  |  |  |  |  |  |  | 
12 | Engineered pediocin PA-1 with [pediocin PA-1 G19A, Engineered pediocin PA-1 with [G19A]] | Growth inhibition zones of P. pentosaceus were observable |  |  |  |  |  |  |  |  |  | 
13 | Engineered pediocin PA-1 with [pediocin PA-1 K1A, Engineered pediocin PA-1 with [K1A]] | largest halo | largest halo |  |  |  |  |  |  |  |  | 
14 | Engineered pediocin PA-1 with [pediocin PA-1 K1A/S13A, Engineered pediocin PA-1 with [K1A/S13A]] | Growth inhibition zones of P. pentosaceus and L. delbrueckii were observable | Growth inhibition zones of P. pentosaceus and L. delbrueckii were observable |  |  |  |  |  |  |  |  | 
15 | Enterocin A |  |  | − | − | + | + | − | − | + | − | 
16 | Bactofencin A |  |  | + | + | + | + | − | − | + | − | 
17 | Leucocin C |  |  | − | + | + | + | − | − | + | − | 
18 | Engineered pediocin PA-1 with [pediocin PA-1 T22A, Engineered pediocin PA-1 with [T22A]] | Growth inhibition zones of P. pentosaceus were observable |  |  |  |  |  |  |  |  |  | 
19 | Engineered persulcatusin with [Mutation S7-140-18, Engineered persulcatusin with [N7D/R16S]] |  |  |  |  |  |  |  |  |  |  | Increase in Activity (L. fermentum NCCB 46038 [6]): +
20 | Q8A: persulcatusin (SEQ ID NO: 1) alanine-scan variant Q8A (GFGCPFNAGACHRHCRSIGRRGGYCAGLFKQTCTCYSR; listed as Ixodes persulcatus) [Mutation Q8A] |  |  |  |  |  |  |  |  |  |  | Change in activity (L. fermentum NCCB 46038 [6]): −
21 | Engineered pediocin PA-1 with [pediocin PA-1 K1T, Engineered pediocin PA-1 with [K1T]] |  | slightly bigger halo than wild-type pediocin PA-1; also recorded: Growth inhibition zones were observable |  |  |  |  |  |  |  |  | 
22 | F2A: persulcatusin (SEQ ID NO: 1) alanine-scan variant F2A (GAGCPFNQGACHRHCRSIGRRGGYCAGLFKQTCTCYSR; listed as Ixodes persulcatus) [Mutation F2A] |  |  |  |  |  |  |  |  |  |  | Change in activity (L. fermentum NCCB 46038 [6]): −
23 | Engineered persulcatusin with [Mutation S7-144-4, Engineered persulcatusin with [G9D/R20S]] |  |  |  |  |  |  |  |  |  |  | Increase in Activity (L. fermentum NCCB 46038 [6]): ++
24 | Coagulin A |  |  | − | + | + | + | − | − | + | − | 
25 | Engineered persulcatusin with [Mutation S7-140-3, Engineered persulcatusin with [R20S/R21G]] |  |  |  |  |  |  |  |  |  |  | Increase in Activity (L. fermentum NCCB 46038 [6]): +
